Our source for the IC50 and viability, T/C values is PubChem BioAssay AID1963852 (Molecular Pharmacology Branch, DTP, NCI, 2024).

Where “and” joins values, the source holds several entries; their conditions need not be identical. Equal values may be shown once.

The subject of this assay is 282377-053-R-J1-PDC complex spheroid viability. Put plainly: Anticancer human tumor 282377-053-R-J1-PDC patient-derived colon adenocarcinoma cell line growth inhibition [POLQ]. To be noted: for viability, T/C: stronger effect = lower value. As to the method:
Multicellular complex tumor spheroid response to Polymerase (POL) inhibitors (novobiocin, ART-558, RP6685) in combination with a variety of drugs and investigational agents in selected tumor cell lines
The POL inhibitors (novobiocin, ART-558, and RP6685) were evaluated both individually and in combination with standard of care and investigational anticancer small molecules within a complex spheroid model of solid tumors. . Complex spheroids include a stromal component modeled by human endothelial cells (HUVEC) and fibroblasts modeled by human mesenchymal stem cells (MSCs). The concentration ranges selected for each drug and investigational agent were based upon clinically achievable concentrations if the clinical Cmax of the agent was known.
Compounds. The drugs and investigational agents: novobiocin (NSC847541), ART-558 (NSC835418), RP-6685 (NSC848927), peposertib (NSC802822), ceralasertib (NSC780249), elimusertib (NSC800525), camonsertib (NSC841442), AZD-1390 (NSC803789), olaparib (NSC753686), talazoparib (NSC767125), rucaparib (NSC756644), sotorasib (NSC818433), MRTX-1133 (NSC836407), SN-38 (NSC673596), topotecan (NSC609699), epotoside (NSC141540), doxorubicin (NSC123127), gemcitabine (NSC613327), 5-fluorouracil (NSC19893), paclitaxel (NSC125973), vemurafenib (NSC761431), MSA-2 (NSC828583), SN-011 (NSC837082), adavosertib (NSC754352), prexasertib (NSC758257), carboplatin (NSC241240) and oxaliplatin (NSC266046), were obtained from the National Cancer Institute (NCI) Developmental Therapeutics Program Chemical Repository (21). The FDA-approved anticancer drug set is available from the Developmental Therapeutics Program at https://dtp.cancer.gov/organization/dscb/obtaining/. […] The stock solutions were prepared in dimethyl sulfoxide (DMSO, Sigma-Aldrich, St. Louis, MO, cat. D2650), except for the platinum compounds which were prepared in saline (Quality Biological, Gaithersburg, MD, cat. 114-055-101), at 800-fold the tested concentration and stored at -70 degrees C prior to their use. All drugs and investigational agents were tested over a range starting from a high concentration at or near the clinical Cmax and decreasing in half-log increments. If the clinical Cmax for an agent had not been determined, the highest concentration tested was 10 microM, except for SN-38, which was tested at a high concentration of 1 microM.
Cell Culture. All cells were maintained in an incubator at 37 degrees C and 5% CO2 with 95% humidity. The PDC lines were cultured according to standard operating procedures established by the NCI PDMR (https://pdmr.cancer.gov). Table 3 of the manuscript, lists the cell lines along with the number of the three cell types plated to form the mct-spheroids and media for tumor cell growth. After thawing, all PDC lines, except 997537-175-T-J1-PDC and 415267-285-R-J2-PDC, were cultured in Matrigel-coated flasks prepared with a working solution of 1X Ham's F-12 nutrient mix, without supplementation (Thermo Fisher Scientific, cat. 11765054), 100 U/mL penicillin-streptomycin (Thermo Fisher Scientific, cat. 15140122), and 2.5% Matrigel (Corning Inc., Corning, NY, cat. 354248) for the first three passages. The two PDC lines 997537-175-T-J1-PDC and 415267-285-R-J2-PDC were cultured on uncoated flasks. The 857933-349-R-J2-PDC line was cultured in 6C/Colon 1B media containing advanced DMEM/F-12 (Thermo Fisher Scientific, cat. 12634028), 10 mM HEPES (Thermo Fisher Scientific, cat. 15630080), 1X GlutaMAX supplement (Thermo Fisher Scientific, cat. 35050061), 0.1 mg/mL primocin (InvivoGen, San Diego, CA, cat. ant-pm-2), 10% defined fetal bovine serum, heat inactivated (HyClone Laboratories Inc., Logan, UT, cat. SH30070.03HI), 50% L-WRN conditioned media (ATCC, cat. CRL-3276), 1.25 mM N-Acetyl-L-cysteine (Sigma-Aldrich, cat. A9165), 10 mM nicotinamide (Sigma-Aldrich, cat. N0636), 1X B-27 supplement (Thermo Fisher Scientific, cat. 17504044), 1X N-2 supplement (Thermo Fisher Scientific, cat. […]
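Also: spheroids exposed to compounds for seven days.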

Consider `C=CCn1c(=O)c2cnc(Nc3ccc(N4CCN(C)CC4)cc3)nc2n1-c1cccc(C(C)(C)O)n1` + Cc1cccc(N(C)C(=O)C2C(O)CCN2c2nc(C)cc(C(F)(F)F)c2C#N)c1, for which the IC50 – broadly, the concentration at which inhibition is half-maximal – reads like this: (curve of first compound, second compound 0.0316 µM) greater than 1000 nM; (curve of first compound, second compound 0.1 µM) greater than 1000 nM; (curve of first compound, second compound 0.316 µM) greater than 1000 nM; (curve of first compound, second compound 1 µM) greater than 1000 nM; (curve of first compound, second compound 3.16 µM) greater than 1000 nM; (curve of first compound, second compound 10 µM) greater than 1000 nM. The viability, T/C (in general, the ratio of treated to control) is, setting by setting: (second compound 0.0316 µM, first compound 0.00316 µM) 106%; (second compound 0.0316 µM, first compound 0.01 µM) 107%; (second compound 0.0316 µM, first compound 0.0316 µM) 107%; (second compound 0.0316 µM, first compound 0.1 µM) 96.9%; (second compound 0.0316 µM, first compound 0.316 µM) 93.6%; (second compound 0.0316 µM, first compound 1 µM) 76.6%. The viability, T/C (second compound 0.1 µM, first compound 0.00316 µM) is 95.6%; the viability, T/C (second compound 0.1 µM, first compound 0.01 µM) is 110%; the viability, T/C (second compound 0.1 µM, first compound 0.0316 µM) is 94.3%; the viability, T/C (second compound 0.1 µM, first compound 0.1 µM) was 102%; the viability, T/C (second compound 0.1 µM, first compound 0.316 µM) is 92.2%; the viability, T/C (second compound 0.1 µM, first compound 1 µM) was 68.4%. Further, the viability, T/C is 107% (second compound 0.316 µM, first compound 0.00316 µM); 103% (second compound 0.316 µM, first compound 0.01 µM); 96.8% (second compound 0.316 µM, first compound 0.0316 µM); 91.1% (second compound 0.316 µM, first compound 0.1 µM); 90.6% (second compound 0.316 µM, first compound 0.316 µM); 71.8% (second compound 0.316 µM, first compound 1 µM). Besides, the viability, T/C (second compound 1 µM, first compound 0.00316 µM) is 109%; the viability, T/C (second compound 1 µM, first compound 0.01 µM) was 97%; the viability, T/C (second compound 1 µM, first compound 0.0316 µM) was 94.8%; the viability, T/C (second compound 1 µM, first compound 0.1 µM) is 89.1%; the viability, T/C (second compound 1 µM, first compound 0.316 µM) was 89.2%; the viability, T/C (second compound 1 µM, first compound 1 µM) was 73%. Further, the viability, T/C by setting is: (second compound 3.16 µM, first compound 0.00316 µM) 104%; (second compound 3.16 µM, first compound 0.01 µM) 102%; (second compound 3.16 µM, first compound 0.0316 µM) 102%; (second compound 3.16 µM, first compound 0.1 µM) 93.2%; (second compound 3.16 µM, first compound 0.316 µM) 98.3%; (second compound 3.16 µM, first compound 1 µM) 70.2%. In addition, the viability, T/C is 99.9% (second compound 10 µM, first compound 0.00316 µM); 103% (second compound 10 µM, first compound 0.01 µM); 93.7% (second compound 10 µM, first compound 0.0316 µM); 98.9% (second compound 10 µM, first compound 0.1 µM); 94.3% (second compound 10 µM, first compound 0.316 µM); 85.4% (second compound 10 µM, first compound 1 µM).

For the molecule `Nc1ccn(C2OC(CO)C(O)C2(F)F)c(=O)n1` (configuration not stated), the viability, T/C by setting is: (compound 0.0316 µM) 74% and 105% and 75.7%; (compound 0.1 µM) 45.1% and 88.6% and 54.5%; (compound 0.316 µM) 30.1% and 97.8% and 29.1%; (compound 1 µM) 23.5% and 84.4% and 33.9%; (compound 3.16 µM) 23.9% and 84% and 18.8%; (compound 10 µM) 13.4% and 71.6% and 11.1%.

In the case of `CC1COCCN1c1cc(C2(O)CC3CCC(C2)O3)c2cnn(-c3ccn[nH]3)c2n1` (configuration not stated), the viability, T/C is 79.8% and 96.8% and 76.4% (compound 0.0316 µM); 77% and 69.1% and 83.1% (compound 0.1 µM); 57.1% and 59.1% and 53.6% (compound 0.316 µM); 29.4% and 34.3% and 49.3% (compound 1 µM); 27.7% and 24.9% and 49.9% (compound 3.16 µM); 16.7% and 22% and 41.5% (compound 10 µM). In addition, the IC50 (curve of compound) was 431 nM and 391 nM and 592 nM.

In the case of `COc1cc2cc(C(=O)CCC(=O)O)sc2cc1OC`, the viability, T/C is, setting by setting: (compound 0.0316 µM) 94.6% and 86.1% and 105%; (compound 0.1 µM) 98.1% and 93.6% and 93.2%; (compound 0.316 µM) 108% and 97% and 105%; (compound 1 µM) 111% and 96.9% and 98.6%; (compound 3.16 µM) 103% and 107% and 127%; (compound 10 µM) 93.6% and 102% and 101%. For the same molecule, the IC50 (curve of compound) is greater than 10000 nM.

`Cc1cccc(N(C)C(=O)C2C(O)CCN2c2nc(C)cc(C(F)(F)F)c2C#N)c1` (configuration not stated): the viability, T/C (compound 0.1 µM) was 105% [middle of 13 runs]. Moreover, the IC50 by setting is: (compound alone, run of 10/31/2023) greater than 10000 nM; (compound alone, run of 11/06/2023) greater than 10000 nM.

In the case of `CCc1cc2c(N3CCc4c(cc(Cn5ccnc5)cc4-c4cn(C)nc4C(F)(F)F)C3=O)ccnc2c(OC)n1`, the viability, T/C is, setting by setting: (compound 0.0316 µM) 128% and 102% and 81.9%; (compound 0.1 µM) 138% and 96.1% and 88.3%; (compound 0.316 µM) 140% and 95% and 77.2%; (compound 1 µM) 129% and 82.6% and 88.5%; (compound 3.16 µM) 121% and 93.2% and 89.4%; (compound 10 µM) 88% and 110% and 120%. The IC50 (curve of compound) is greater than 10000 nM.

Turning to `COc1ccc([C@@H](O)c2cc(-c3ncnc4cc(N5CCOCC5)ccc34)c(F)cc2Cl)nn1`, the viability, T/C by setting is: (compound 0.0316 µM) 95.7% and 94.3% and 98.1%; (compound 0.1 µM) 92.2% and 99.3% and 91.8%; (compound 0.316 µM) 112% and 94.1% and 106%; (compound 1 µM) 88.9% and 98.7% and 102%; (compound 3.16 µM) 82.5% and 101% and 87.2%; (compound 10 µM) 71.8% and 84.8% and 82.2%. Further, the IC50 (curve of compound) was greater than 10000 nM.

Take `CCCS(=O)(=O)Nc1ccc(F)c(C(=O)c2c[nH]c3ncc(-c4ccc(Cl)cc4)cc23)c1F`: the viability, T/C was 93.1% and 82.2% and 78.1% (compound 0.0316 µM); 85.3% and 76.1% and 69.5% (compound 0.1 µM); 85.1% and 71% and 76.2% (compound 0.316 µM); 72% and 64.2% and 46.1% (compound 1 µM); 68.8% and 63.2% and 64.1% (compound 3.16 µM); 69.5% and 72.5% and 26.7% (compound 10 µM). For the setting “curve of compound”, the half-inhibitory concentration (IC50) is > 10000 nM and 3360 nM.

Turning to `CC[C@@]1(O)C(=O)OCc2c1cc1n(c2=O)Cc2cc3c(CN(C)C)c(O)ccc3nc2-1`, the viability, T/C (compound 0.000316 µM) is 98.9% and 101% and 105%; the viability, T/C (compound 0.001 µM) was 93.9% and 102% and 98.8%; the viability, T/C (compound 0.00316 µM) was 77% and 92.2% and 116%; the viability, T/C (compound 0.01 µM) is 119% and 104% and 94.3%; the viability, T/C (compound 0.0316 µM) is 98.5% and 97.7% and 86.9%; the viability, T/C (compound 0.1 µM) was 81.5% and 110% and 76.7%. The IC50 (curve of compound) was greater than 100 nM.

Take `COc1cccc(OCCCN)c1-c1cc(Nc2cnc(C#N)cn2)n[nH]1`: the viability, T/C reads like this: (compound 0.00316 µM) 107% and 99.4% and 101%; (compound 0.01 µM) 94.1% and 89.1% and 85.9%; (compound 0.0316 µM) 76.9% and 82.1% and 72.1%; (compound 0.1 µM) 49.5% and 74.7% and 75.6%; (compound 0.316 µM) 37.2% and 63.1% and 52.5%; (compound 1 µM) 26.8% and 44% and 43.3%. In addition, the IC50 (curve of compound) is 112 nM and 731 nM and 534 nM.

With `Cn1ncnc1[C@H]1c2n[nH]c(=O)c3cc(F)cc(c23)N[C@@H]1c1ccc(F)cc1`, the viability, T/C runs as follows: (compound 0.000316 µM) 97.4% and 91% and 104%; (compound 0.001 µM) 95.4% and 95.3% and 93.1%; (compound 0.00316 µM) 76.2% and 90.7% and 93.6%; (compound 0.01 µM) 108% (2×) and 102%; (compound 0.0316 µM) 110% and 98.3% and 105%; (compound 0.1 µM) 90.5% and 95.2% and 106%. The IC50 (curve of compound) is greater than 100 nM.
